What was measured:
pure cultures of moulds = assay: single components and binary combinations on MEA agar plates against pure cultures of moulds (colony diameter); type: cell-based, Fusarium oxisporum, Byssoaclamys fulva, Penicillium sp
Description: (§1) Each experiment existed of 10 MEA agar plates containing a successive amount of component, starting from 0 ppm to the maximal used concentration.
(§2) MEA was prepared by dissolving 20 g of Malt extract (Difco, England), 1 g of Peptone (Becton Dickinson, USA), 20 g of glucose and 20 g of bacteriological agar (No. 1. Oxoid, England) in 11 of dematerialized water. The pH was adjusted to 3.2 by adding 5.9 ml of Hcl 1M after heat sterilization.
(§3) A stock solution was made for each component. The stock was 25 times the maximal used concentration. A successive amount from 0 to 900 μl of these stocks, making the concentration range, was pipetted in 10, 50 ml capped test tubes.
(§4) Subsequently, 25 ml of warm (80-90° C.) MEA agar was pipetted, using a sterile 25 ml pipette, in the tubes and the tubes were vortexed slowly but vigorously. Next, the component containing agar was poured out in 9 cm Petri dishes. Besides single components against single moulds, combinations of propionate with potassium cinnamate or vanillin were tested on solid agar. To prepare these binary combinations 6.25 ml of a 4 times concentrated component was mixed with the other components that was also 4 times concentrated. The mix of components were mixed with 12.5 ml double concentrated MEA to reach the preferred concentrations.
(§5) After the plates were dried a dot was spotted at the backside and in the centre of the petridish 0.5 μl of the mould spore solution was spotted on the agar targeting the dot in the centre. When the drop was dried in, the plates were placed bottom down in the incubator at 25° C.
(§6) The growth of colonies was determined by measurement of the colony diameter at different points in time. The growth curves were converted to dose response curves as described in 2.6.
(§7) The data from the agar plate experiments were obtained by measuring the colony size changes. The change in time was interpreted as growth speed and growth curves were plotted.
To convert the growth curves to dose response curves the μ Max (maximum growth rate) was calculated per concentration of antimicrobial component. […]

[1] = system: Byssoaclamys fulva (Bysful2); assay: MEA agar plate colony growth test; type: cell-based; settings: single component, agar plates
Description: as §1, §2, §3, §4, §5, §6, §7
(§8) To convert the growth curves to dose response curves the μ Max (maximum growth rate) was calculated per concentration of antimicrobial component. The curves were fitted to a Logistic Dose Response (LDR) Intercept Form (Equation 8013) using Table curve 2D version 5.1

Penicillium sp (Pen381) = assay: MEA agar plate colony growth test; type: cell-based; settings: single component, agar plates
Description: as §1, §2, §3, §4, §5, §6, §7, §8

mould cocktail = assay: combinations of components in model drink in 96-well microtiter plates, visual observation of growth; type: cell-based, Fusarium oxisporum, Byssoaclamys fulva, Penicillium sp; settings: 3 weeks at 20°
Description: The tests where two components or more components were combined in model drink were carried out in sterile 96-well microtiter plates. Sterile matrix was prepared according recipe of Nestle with increasing quantities of two different inhibitors. The concentrations of each inhibitor were presented in 8 equal concentration steps that ranged from 0 to 1-2 times the (estimated) MIC value of particular mould for a particular inhibitor resulting in 64 different media. 200 μl of each medium was transferred to a panel of a sterile 96-well microtiter plate.
Completed well plates were stored at 4° C. until further use. The data was obtained via optical observation of growth.
Spores of all moulds were collected via the method as described in 2.3. Spores were counted using the Burker-turk method and adjusted to a log 5 per ml in PFZ and mixed to a homologue suspension. This suspension was diluted 100 times for inoculation.
In order to have an idea of the efficacy of the combination of propionate, vanillin and potassium cinnamate in model drink, some experiments were done in microwells plates. These experiments were visually observed after 3 weeks of incubation at 20° and used as pre-application experiments in order to create an expectation for the efficacy of the components in long term application experiments. The data that is shown in table 5 below is divided in “+” and “−”. The “+” means visible growth, while the “−” means no visible growth of the mould cocktail at the specific concentrations. […] However, combined with an amount of nearly 400 ppm of propionate and 75 ppm of vanillin the model drink is stable for at least 3 weeks.

## COc1cc(C=O)ccc1O [vanillin, 4-Hydroxy-3-methoxybenzaldehyde]
Pure cultures of moulds
  sensitivity of all moulds to the component: sensitive
Pure cultures of moulds; single component, also printed as 900 ppm
  amount needed for an overall inhibition of all moulds: approximately 0.09%

## CCC(=O)O [propionate, Propionic acid]
[1]
  concentration at which Byssoclamys is inhibited: approximately 0.15%
Penicillium sp (Pen381)
  concentration at which Penicillium is inhibited: approximately 0.15%
Pure cultures of moulds
  sensitivity of all moulds to the component: sensitive

## O=C([O-])C=Cc1ccccc1.[K+] [potassium cinnamate]
Penicillium sp (Pen381); after 100 ppm
  growth of Penicillium: dramatic increase
Penicillium sp (Pen381); levels up to 200 ppm
  inhibition of Penicillium: not inhibited
Mould cocktail; 350 ppm alone
  inhibition of the growth of the mould cocktail: not sufficient
Mould cocktail; Kcinnamate 0.0050% (w/v)
  visible growth of mould cocktail: +
Mould cocktail; Kcinnamate 0.0100% (w/v)
  visible growth of mould cocktail: +
Mould cocktail; Kcinnamate 0.0150% (w/v)
  visible growth of mould cocktail: +
Mould cocktail; Kcinnamate 0.0200% (w/v)
  visible growth of mould cocktail: +
Mould cocktail; Kcinnamate 0.0250% (w/v)
  visible growth of mould cocktail: +
Mould cocktail; Kcinnamate 0.0300% (w/v)
  visible growth of mould cocktail: +
Mould cocktail; Kcinnamate 0.0350% (w/v)
  visible growth of mould cocktail: +

Source: US20140302217A1, “PRESERVATIVE COMBINATIONS COMPRISING PROPIONIC ACID AND VANILLIN AND/OR CINNAMIC ACID” (Purac Biochem B.V., priority 2011, published 2014)
